Entries after “also recorded” stand apart in the source; their conditions may differ.
System: leukocytes emigrated from the mesenteric venules
Assay: Counting of leukocytes emigrated from venules after I/R
Format: in vivo
Details: rat mesenteric I/R
Protocol: The rats were anesthetized by intraperitoneal injection of pentobarbital sodium (30 mg/kg body weight (BW)). PE venous cannulas (#3) were cannulated into the right jugular of the rats and detained. The abdomen of each rat was incised in a length of 20-30 mm along the midline. The ileum near the ileocecal junctions was gently taken out and unfolded onto the object stage mounted with glass slides. The unfolded mesenteries were continuously dripped with Krebs-Ringer buffering solution at 37° C. The microcirculatory dynamics of the mesenteries was observed under white light (12V, 100 W) using an inverted biomicroscope (Diaphot TMD-2S, Nikon, Tokyo) placed in the thermostat at 37° C. Observation sites were selected under 20× object lens, and a video recording system with a time-displaying function was used to record what had been observed on S-VHS tape and preserved. […] Normal saline was administrated at 20 min before ischemia until the end of the observation by continuously intravenous drip via jugular at a dosage of 5 mg/kg/h. PE cannulas were used to ligate non-circulatory mesenteric arteries and veins, so as to observe the arteries and veins for 10 min, and then the ligation was lifted. Time was adjusted to zero and the microcirculatory dynamics under the same visual field was continuously observed for 60 min.
DLA was administrated at 20 min before ischemia until the end of the observation by continuously intravenous drip via jugular at a dosage of 5 mg/kg/h.
R1 was administrated at 20 min before ischemia until the end of the observation by continuously intravenous drip via jugular at a dosage of 5 mg/kg/h.
The combination of DLA and R1 in a weight ratio of 4:1 was administrated at 20 min before ischemia until the end of the observation by continuously intravenous drip via jugular at a dosage of 5 mg/kg/h.
The combination of DLA and R1 in a weight ratio of 1:1 was administrated at 20 min before ischemia until the end of the observation by continuously intravenous drip via jugular at a dosage of 5 mg/kg/h. […]
Wherein, 6 rats in each group were taken out, these rats were used for observing the following aspects: the venular diameters; leukocytes rolling, adhesion, and emigration and DHR fluorescence intensities of the venular walls. […]
Microcirculatory dynamics was continuously recorded using an inverted biomicroscope […] recording system (CC-090, Flovel, Tokyo) and SIT fluorescent camera (C-2400-08, Hamamatsu Photonics, Hamamatsu).
The number of the leukocytes emigrated from the mesenteric venules was observed and counted from the replayed images at the following time points: before ischemia, and 1 min, 10 min, 20 min, 30 min, 40 min, 50 min and 60 min after the beginning of the reperfusion.

[1] = post-administration, 5 mg/kg/h continuous i.v. drip from 20 min after ischemia (DLA: 10 min after I/R)
[2] = pre-administration, 5 mg/kg/h continuous i.v. drip from 20 min before ischemia

| Structure (SMILES) | inhibition of the emigration of leukocytes from the mesenteric venules after I/R [1] | inhibition of the emigration of leukocytes from the mesenteric venules after I/R [2] |
| --- | --- | --- |
| O=C(O)C(O)Cc1ccc(O)c(O)c1 (stereo not shown) [DLA, 3,4-dihydroxyphenyl lactic acid] | had significant inhibitory effects; also recorded: has the same effects as those of the pre-administration | had significant inhibitory effects; also recorded: can inhibit |
| CC(C)=CCC[C@](C)(O[C@@H]1O[C@H](CO)[C@@H](O)[C@H](O)[C@H]1O)[C@H]1CC[C@]2(C)[C@@H]1[C@H](O)C[C@@H]1[C@@]3(C)CC[C@H](O)C(C)(C)[C@@H]3[C@@H](O[C@@H]3O[C@H](CO)[C@@H](O)[C@H](O)[C@H]3O[C@@H]3OC[C@@H](O)[C@H](O)[C@H]3O)C[C@]12C [R1, Notoginsenoside R1] | had significant inhibitory effects; also recorded: can inhibit | had significant inhibitory effects; also recorded: can inhibit |
